Assay results from patent US20250186437A1, “CARBOLINE COMPOUNDS AND USE THEREOF” (PTC Therapeutics, Inc., priority 2021, published 2025).

Test system: MOLM-13 cells
Assay: MOLM-13 Cell Proliferation Assay (indicator of DHODH inhibition)
Assay type: cell-based
Conditions: Homo sapiens, 72 Hours of culture, CellTiter-Glo, no uridine
Summary of the method: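 Low-passage MOLM-13 cells (10^4/well) in RPMI 1640 + 10% FBS exposed to compound (0.5% DMSO final) for 72 h at 37 °C, 5% CO2. Viability read by CellTiter-Glo luminescence; growth reflects de novo pyrimidine synthesis dependent on DHODH.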

IC50 [nM] | Structure (SMILES)
10.1 | Fc1cnc(N2CCc3c([nH]c4ccc(Cl)cc34)C2c2cnc(N3CCOCC3)nc2)nc1 (stereo not drawn) [Compound 364, 6-chloro-2-(5-fluoropyrimidin-2-yl)-1-[2-(morpholin-4-yl)pyrimidin-5-yl]-2,3,4,9-tetrahydro-1H-pyrido[3,4-b]indole]
4.7 | Cc1nc(N2CCc3c([nH]c4ccc(Cl)cc34)C2c2ccc(N3CCOCC3)nc2)nc(C)c1F (stereo not drawn) [Compound 367, 6-chloro-2-(5-fluoro-4,6-dimethylpyrimidin-2-yl)-1-[6-(morpholin-4-yl)pyridin-3-yl]-2,3,4,9-tetrahydro-1H-pyrido[3,4-b]indole]
8.1 | Cc1nc(C)nc(N2CCc3c([nH]c4c(O)cc(Cl)cc34)C2c2cnc(N3CCOCC3)nc2)n1 (stereo not drawn) [Compound 370, 6-chloro-2-(4,6-dimethyl-1,3,5-triazin-2-yl)-1-[2-(morpholin-4-yl)pyrimidin-5-yl]-2,3,4,9-tetrahydro-1H-pyrido[3,4-b]indol-8-ol]
6.7 | FC(F)(F)c1ccnc(N2CCc3c([nH]c4ccc(Cl)cc34)C2c2ccc(N3C[C@@H]4C[C@H]3CO4)nc2)n1 (stereo partly drawn) [Compound 375, 6-chloro-1-{6-[(1S,4S)-2-oxa-5-azabicyclo[2.2.1]heptan-5-yl]pyridin-3-yl}-2-[4-(trifluoromethyl)pyrimidin-2-yl]-2,3,4,9-tetrahydro-1H-pyrido[3,4-b]indole]
41.6 | Cc1nc(C)nc(N2CCc3c([nH]c4ccc(Cl)cc34)C2c2ccc(N3C[C@@H]4C[C@H]3CO4)nc2)n1 (stereo partly drawn) [Compound 377, 6-chloro-2-(4,6-dimethyl-1,3,5-triazin-2-yl)-1-{6-[(1S,4S)-2-oxa-5-azabicyclo[2.2.1]heptan-5-yl]pyridin-3-yl}-2,3,4,9-tetrahydro-1H-pyrido[3,4-b]indole]
26.3 | Cc1nc(C)nc(N2CCc3c([nH]c4ccc(Cl)cc34)C2c2cnc(N3CCN(C)CC3)nc2)n1 (stereo not drawn) [Compound 380, 6-chloro-2-(4,6-dimethyl-1,3,5-triazin-2-yl)-1-[2-(4-methylpiperazin-1-yl)pyrimidin-5-yl]-2,3,4,9-tetrahydro-1H-pyrido[3,4-b]indole]
13.4 | Fc1cnc(N2CCc3c([nH]c4ccc(Cl)cc34)C2c2ccc(N3CCOCC3)nc2)nc1 (stereo not drawn) [Compound 382, 6-chloro-2-(5-fluoropyrimidin-2-yl)-1-[6-(morpholin-4-yl)pyridin-3-yl]-2,3,4,9-tetrahydro-1H-pyrido[3,4-b]indole]
25.6 | Cc1cnnc(N2CCc3c([nH]c4ccc(Cl)cc34)C2c2cnc(N3CCOCC3)nc2)n1 (stereo not drawn) [Compound 384, 6-chloro-2-(5-methyl-1,2,4-triazin-3-yl)-1-[2-(morpholin-4-yl)pyrimidin-5-yl]-2,3,4,9-tetrahydro-1H-pyrido[3,4-b]indole]
2.2 | Cc1ccc([C@H]2c3[nH]c4ccc(Cl)cc4c3CCN2c2ncc(F)c(C#N)n2)c(F)c1F [Compound 385, 2-[(1S)-6-chloro-1-(2,3-difluoro-4-methylphenyl)-1,3,4,9-tetrahydro-2H-pyrido[3,4-b]indol-2-yl]-5-fluoropyrimidine-4-carbonitrile]
0.3 | Cc1ccc([C@H]2c3[nH]c4ccc(Cl)cc4c3CCN2c2nc(C(F)(F)F)nc(C(F)(F)F)n2)cc1 [Compound 386, (1S)-2-[4,6-bis(trifluoromethyl)-1,3,5-triazin-2-yl]-6-chloro-1-(4-methylphenyl)-2,3,4,9-tetrahydro-1H-pyrido[3,4-b]indole]
3.5 | Cc1ccc([C@H]2c3[nH]c4ccc(Cl)cc4c3CCN2c2nc(C#N)nc(C(F)(F)F)n2)c(F)c1F [Compound 390, 4-[(1S)-6-chloro-1-(2,3-difluoro-4-methylphenyl)-1,3,4,9-tetrahydro-2H-pyrido[3,4-b]indol-2-yl]-6-(trifluoromethyl)-1,3,5-triazine-2-carbonitrile]
3.1 | Cc1ccc([C@H]2c3[nH]c4ccc(Cl)cc4c3CCN2c2ncc(F)c(C#N)n2)cc1 [Compound 392, 2-[(1S)-6-chloro-1-(4-methylphenyl)-1,3,4,9-tetrahydro-2H-pyrido[3,4-b]indol-2-yl]-5-fluoropyrimidine-4-carbonitrile]
2.4 | N#Cc1nc(N2CCc3c([nH]c4ccc(Cl)cc34)[C@@H]2c2cnc(N3CCOCC3)nc2)ncc1F [Compound 396, 2-{(1S)-6-chloro-1-[2-(morpholin-4-yl)pyrimidin-5-yl]-1,3,4,9-tetrahydro-2H-pyrido[3,4-b]indol-2-yl}-5-fluoropyrimidine-4-carbonitrile]
11.2 | Cc1ccc([C@H]2c3[nH]c4ccc(Cl)cc4c3CCN2c2ncnc(C#N)n2)cc1 [Compound 399, 4-[(1S)-6-chloro-1-(4-methylphenyl)-1,3,4,9-tetrahydro-2H-pyrido[3,4-b]indol-2-yl]-1,3,5-triazine-2-carbonitrile]

The next lines start with the molecule.

Structure (SMILES) | IC50 [nM]
Cc1ccc(C2c3[nH]c4ccc(Cl)cc4c3CCN2c2nc(C(F)(F)F)cc(C(F)(F)F)n2)cc1 (stereo not drawn) [Compound 360, 2-[4,6-bis(trifluoromethyl)pyrimidin-2-yl]-6-chloro-1-(4-methylphenyl)-2,3,4,9-tetrahydro-1H-pyrido[3,4-b]indole] | 0.9
Cc1nc(N2CCc3c([nH]c4ccc(Cl)cc34)C2c2ccc(N3CCOCC3)nc2)ncc1F (stereo not drawn) [Compound 365, 6-chloro-2-(5-fluoro-4-methylpyrimidin-2-yl)-1-[6-(morpholin-4-yl)pyridin-3-yl]-2,3,4,9-tetrahydro-1H-pyrido[3,4-b]indole] | 8
Cc1nc(N2CCc3c([nH]c4ccc(Cl)cc34)C2c2cnc(N3CCOCC3)nc2)ncc1F (stereo not drawn) [Compound 366, 6-chloro-2-(5-fluoro-4-methylpyrimidin-2-yl)-1-[2-(morpholin-4-yl)pyrimidin-5-yl]-2,3,4,9-tetrahydro-1H-pyrido[3,4-b]indole] | 10
Cc1nc(N2CCc3c([nH]c4ccc(Cl)cc34)C2c2cnc(N3CCOCC3)nc2)nc(C)c1F (stereo not drawn) [Compound 368, 6-chloro-2-(5-fluoro-4,6-dimethylpyrimidin-2-yl)-1-[2-(morpholin-4-yl)pyrimidin-5-yl]-2,3,4,9-tetrahydro-1H-pyrido[3,4-b]indole] | 7.9
Fc1cccc(C2c3[nH]c4ccc(Cl)cc4c3CCN2c2nccc(C(F)(F)F)n2)c1 (stereo not drawn) [Compound 371, 6-chloro-1-(3-fluorophenyl)-2-[4-(trifluoromethyl)pyrimidin-2-yl]-2,3,4,9-tetrahydro-1H-pyrido[3,4-b]indole] | 8.8
FC(F)(F)c1ccnc(N2CCc3c([nH]c4ccc(Cl)cc34)C2c2ccc(N3C[C@H]4C[C@@H]3CO4)nc2)n1 (stereo partly drawn) [Compound 373, 6-chloro-1-{6-[(1R,4R)-2-oxa-5-azabicyclo[2.2.1]heptan-5-yl]pyridin-3-yl}-2-[4-(trifluoromethyl)pyrimidin-2-yl]-2,3,4,9-tetrahydro-1H-pyrido[3,4-b]indole] | 4.6
Cc1nc(C)nc(N2CCc3c([nH]c4ccc(Cl)cc34)C2c2ccc(N3C[C@H]4C[C@@H]3CO4)nc2)n1 (stereo partly drawn) [Compound 376, 6-chloro-2-(4,6-dimethyl-1,3,5-triazin-2-yl)-1-{6-[(1R,4R)-2-oxa-5-azabicyclo[2.2.1]heptan-5-yl]pyridin-3-yl}-2,3,4,9-tetrahydro-1H-pyrido[3,4-b]indole] | 33.2
Cc1ccc(C2c3[nH]c4ccc(Cl)cc4c3CCN2c2nccc(C#N)n2)cc1 (stereo not drawn) [Compound 378, 2-[6-chloro-1-(4-methylphenyl)-1,3,4,9-tetrahydro-2H-pyrido[3,4-b]indol-2-yl]pyrimidine-4-carbonitrile] | 7
Cc1ccc(C2c3[nH]c4ccc(Cl)cc4c3CCN2c2nc(C)cc(C#N)n2)cc1 (stereo not drawn) [Compound 379, 2-[6-chloro-1-(4-methylphenyl)-1,3,4,9-tetrahydro-2H-pyrido[3,4-b]indol-2-yl]-6-methylpyrimidine-4-carbonitrile] | 4.5
FC(F)(F)c1cnnc(N2CCc3c([nH]c4ccc(Cl)cc34)C2c2cnc(N3CCOCC3)nc2)n1 (stereo not drawn) [Compound 383, 6-chloro-1-[2-(morpholin-4-yl)pyrimidin-5-yl]-2-[5-(trifluoromethyl)-1,2,4-triazin-3-yl]-2,3,4,9-tetrahydro-1H-pyrido[3,4-b]indole] | 1.6
CSc1nc(N2CCc3c([nH]c4ccc(Cl)cc34)[C@@H]2c2ccc(C)c(F)c2F)nc(C(F)(F)F)n1 [Compound 389, (1S)-6-chloro-1-(2,3-difluoro-4-methylphenyl)-2-[4-(methylsulfanyl)-6-(trifluoromethyl)-1,3,5-triazin-2-yl]-2,3,4,9-tetrahydro-1H-pyrido[3,4-b]indole] | 0.8
FC(F)(F)c1ccnc(N2CCc3c([nH]c4ccc(Cl)cc34)C2c2cnc(N3CC4(COC4)C3)nc2)n1 (stereo not drawn) [Compound 391, 6-chloro-1-[2-(2-oxa-6-azaspiro[3.3]heptan-6-yl)pyrimidin-5-yl]-2-[4-(trifluoromethyl)pyrimidin-2-yl]-2,3,4,9-tetrahydro-1H-pyrido[3,4-b]indole] | 5.7
Cc1ccc([C@H]2c3[nH]c4ccc(Cl)cc4c3CCN2c2ncc(F)cn2)cc1 [Compound 393, (1S)-6-chloro-2-(5-fluoropyrimidin-2-yl)-1-(4-methylphenyl)-2,3,4,9-tetrahydro-1H-pyrido[3,4-b]indole] | 12.7
Cc1ccc([C@H]2c3[nH]c4ccc(Cl)cc4c3CCN2c2ncc(F)c(C)n2)cc1 [Compound 394, (1S)-6-chloro-2-(5-fluoro-4-methylpyrimidin-2-yl)-1-(4-methylphenyl)-2,3,4,9-tetrahydro-1H-pyrido[3,4-b]indole] | 4.9
Cc1ccc([C@H]2c3[nH]c4ccc(Cl)cc4c3CCN2c2nc(C)c(F)c(C)n2)cc1 [Compound 395, (1S)-6-chloro-2-(5-fluoro-4,6-dimethylpyrimidin-2-yl)-1-(4-methylphenyl)-2,3,4,9-tetrahydro-1H-pyrido[3,4-b]indole] | 4.4
Cc1ccc([C@H]2c3[nH]c4ccc(Cl)cc4c3CCN2c2nc(C#N)cc(C#N)n2)cc1 [Compound 397, 2-[(1S)-6-chloro-1-(4-methylphenyl)-1,3,4,9-tetrahydro-2H-pyrido[3,4-b]indol-2-yl]pyrimidine-4,6-dicarbonitrile] | 2.4
